In general, IC50 refers to the midpoint of a concentration-inhibition curve.

We go through 31 compounds from patent US20190071416A1, “COMPOUNDS FOR TREATMENT OF CANCER AND EPIGENETICS” (Agency For Science, Technology and Research, priority 2015, published 2019).

The target of the assay is T1, SMYD3 (Homo sapiens, UniProt Q9H7B4).
T1 sequence (Q9H7B4 1-428): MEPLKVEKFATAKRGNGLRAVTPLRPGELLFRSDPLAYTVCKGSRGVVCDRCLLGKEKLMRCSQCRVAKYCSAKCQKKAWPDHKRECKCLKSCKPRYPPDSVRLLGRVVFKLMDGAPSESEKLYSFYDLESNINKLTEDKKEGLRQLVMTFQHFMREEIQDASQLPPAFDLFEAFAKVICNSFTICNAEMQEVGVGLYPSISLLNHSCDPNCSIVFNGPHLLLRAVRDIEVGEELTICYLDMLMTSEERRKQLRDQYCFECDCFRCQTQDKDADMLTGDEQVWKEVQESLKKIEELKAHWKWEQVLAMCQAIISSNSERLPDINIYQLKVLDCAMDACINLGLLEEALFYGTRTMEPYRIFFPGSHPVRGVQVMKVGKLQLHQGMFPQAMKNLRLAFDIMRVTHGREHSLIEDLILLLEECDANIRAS
Briefly: SMYD3 biochemical assay (MTase-Glo, MAP3K2 peptide substrate). As to conditions: Table 3; MTase assay, MAP3K2 peptide substrate; read-out: IC50. In short, it runs like this:
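Methylation of MAP3K2 peptide (10 µM final) with SAM (1.0 µM final) by SMYD3, 30 min at room temperature. SAH formed was enzymatically converted to ATP and detected as luminescence with MTase-Glo reagents; IC50 by non-linear regression.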
Turning to `CCCOC(=O)N1CCN(C(=O)c2ccc3c(Cl)cc(-c4cc(C)c5[nH]ncc5c4)nc3c2)CC1` [B186, Propyl 4-(4-chloro-2-(7-methyl-1H-indazol-5-yl)quinoline-7-carbonyl)piperazine-1-carboxylate], the concentration for half-maximal inhibition (IC50) was found to be 140 nM.

Take `CCCOC(=O)N1CCN(C(=O)c2ccc3c(Cl)cc(-c4cccc5[nH]cnc45)nc3c2)CC1` [B187, Propyl 4-(2-(1H-benzo[d]imidazol-4-yl)-4-chloroquinoline-7-carbonyl)piperazine-1-carboxylate]: the IC50 worked out at 140 nM.

For the compound `CCCOC(=O)N1CCN(C(=O)c2ccc3c(Cl)cc(-c4cnc5cccnc5c4)nc3c2)C[C@@H]1C` [B188, Propyl (S)-4-(4-chloro-2-(1,5-naphthyridin-3-yl)quinoline-7-carbonyl)-2-methylpiperazine-1-carboxylate], the concentration for half-maximal inhibition (IC50) was determined as 890 nM.

For `CCCOC(=O)N1CCN(C(=O)c2ccc3c(Cl)cc(-c4ccc(C(=O)NC)cc4)nc3c2)C[C@@H]1C` [B189, Propyl (S)-4-(4-chloro-2-(4-(methylcarbamoyl)phenyl)quinoline-7-carbonyl)-2-methylpiperazine-1-carboxylate], the 50% inhibitory concentration (IC50) was found to be 69 nM.

Consider `CCCOC(=O)N1CCN(C(=O)c2ccc3c(Cl)cc(-c4ccc(C(=O)NC)cc4)nc3c2)[C@@H](C)C1` [B190, Propyl (S)-4-(4-chloro-2-(4-(methylcarbamoyl)phenyl)quinoline-7-carbonyl)-3-methylpiperazine-1-carboxylate], for which the IC50 stood at 130 nM.

As to `CCCOC(=O)N1CCN(C(=O)c2ccc3c(Cl)cc(-c4ccc(O)c(F)c4)nc3c2)CC1` [B191, Propyl 4-(4-chloro-2-(3-fluoro-4-hydroxyphenyl)quinoline-7-carbonyl)piperazine-1-carboxylate], the IC50 worked out at 140 nM.

As for `CCCOC(=O)N1CCN(C(=O)c2ccc3c(Cl)cc(-c4ccc(O)c(F)c4)nc3c2)C[C@@H]1C` [B192, Propyl (S)-4-(4-chloro-2-(3-fluoro-4-hydroxyphenyl)quinoline-7-carbonyl)-2-methylpiperazine-1-carboxylate], the concentration for half-maximal inhibition (IC50) came out at 75 nM.

As for `CCCOC(=O)N1CCN(C(=O)c2ccc3c(Cl)cc(-c4ccn(C)c4)nc3c2)C[C@@H]1C` [B193, Propyl (S)-4-(4-chloro-2-(1-methyl-1H-pyrrol-3-yl)quinoline-7-carbonyl)-2-methylpiperazine-1-carboxylate], the half-inhibitory concentration (IC50) stood at 60 nM.

Turning to `CCCOC(=O)N1CCN(C(=O)c2ccc3c(Cl)cc(-c4ccn(C)c4)nc3c2)[C@@H](C)C1` [B194, Propyl (S)-4-(4-chloro-2-(1-methyl-1H-pyrrol-3-yl)quinoline-7-carbonyl)-3-methylpiperazine-1-carboxylate], the IC50 worked out at 130 nM.

As for `CCCOC(=O)N1CCN(C(=O)c2ccc3c(Cl)cc(-c4ccc5cnn(C)c5c4)nc3c2)CC1` [B195, Propyl 4-(4-chloro-2-(1-methyl-1H-indazol-6-yl)quinoline-7-carbonyl)piperazine-1-carboxylate], the IC50 came out at 250 nM.

In the case of `CCCOC(=O)N1CCN(C(=O)c2ccc3c(Cl)cc(-c4ccc5cn(C)nc5c4)nc3c2)CC1` [B196, Propyl 4-(4-chloro-2-(2-methyl-2H-indazol-6-yl)quinoline-7-carbonyl)piperazine-1-carboxylate], the IC50 came out at 56 nM.

Take `CCCOC(=O)N1CCN(C(=O)c2ccc3c(Cl)cc(-c4ccc5[nH]nc(C)c5c4)nc3c2)C[C@H]1C` [B197, Propyl (R)-4-(4-chloro-2-(3-methyl-1H-indazol-5-yl)quinoline-7-carbonyl)-2-methylpiperazine-1-carboxylate]: the half-maximal inhibitory concentration (IC50) came to 100 nM.

`CCCOC(=O)N1CCN(C(=O)c2ccc3c(Cl)cc(-c4ccc5[nH]nc(C)c5c4)nc3c2)[C@@H](C)C1` [B198, Propyl (S)-4-(4-chloro-2-(3-methyl-1H-indazol-5-yl)quinoline-7-carbonyl)-3-methylpiperazine-1-carboxylate]: the IC50 worked out at 200 nM.

With `CCCOC(=O)N1CCN(C(=O)c2ccc3c(Cl)cc(-c4cnc5[nH]nc(C)c5c4)nc3c2)C[C@H]1C` [B199, Propyl (R)-4-(4-chloro-2-(3-methyl-1H-pyrazolo[3,4-b]pyridin-5-yl)quinoline-7-carbonyl)-2-methylpiperazine-1-carboxylate], the IC50 was determined as 350 nM.

In the case of `CCCOC(=O)N1CCN(C(=O)c2ccc3c(Cl)cc(-c4cnc5[nH]nc(C)c5c4)nc3c2)[C@@H](C)C1` [B200, Propyl (S)-4-(4-chloro-2-(3-methyl-1H-pyrazolo[3,4-b]pyridin-5-yl)quinoline-7-carbonyl)-3-methylpiperazine-1-carboxylate], the half-inhibitory concentration (IC50) was found to be 1030 nM.

Regarding `CCCOC(=O)N1CCN(C(=O)c2ccc3c(Cl)cc(-c4cc(F)c(O)c(F)c4)nc3c2)CC1` [B201, Propyl 4-(4-chloro-2-(3,5-difluoro-4-hydroxyphenyl)quinoline-7-carbonyl)piperazine-1-carboxylate], the 50% inhibitory concentration (IC50) came to 180 nM.

Turning to `CCCOC(=O)N1CCN(C(=O)c2ccc3c(Cl)cc(-c4ccc(O)c(C)c4)nc3c2)CC1` [B202, Propyl 4-(4-chloro-2-(4-hydroxy-3-methylphenyl)quinoline-7-carbonyl)piperazine-1-carboxylate], the 50% inhibitory concentration (IC50) worked out at 120 nM.

As for `CCCOC(=O)N1CCN(C(=O)c2ccc3c(Cl)cc(-c4ccc5occc5c4)nc3c2)CC1` [B203, Propyl 4-(2-(benzofuran-5-yl)-4-chloroquinoline-7-carbonyl)piperazine-1-carboxylate], the half-maximal inhibitory concentration (IC50) is 460 nM.

As for `CCCOC(=O)N1CCN(C(=O)c2ccc3c(Cl)cc(-c4ccc(C(=O)NC)c(F)c4)nc3c2)CC1` [B204, Propyl 4-(4-chloro-2-(3-fluoro-4-(methylcarbamoyl)phenyl)quinoline-7-carbonyl)piperazine-1-carboxylate], the IC50 came to 1010 nM.

On to `CCCOC(=O)N1CCN(C(=O)c2ccc3c(Cl)cc(-c4ccc(C(=O)NC5CC5)c(F)c4)nc3c2)CC1` [B205, Propyl 4-(4-chloro-2-(4-(cyclopropylcarbamoyl)-3-fluorophenyl)quinoline-7-carbonyl)piperazine-1-carboxylate], for which the half-inhibitory concentration (IC50) came out at 890 nM.

For `CCCOC(=O)N1CCN(C(=O)c2ccc3c(Cl)cc(-c4ccc(C(=O)NCC)cc4)nc3c2)CC1` [B206, Propyl 4-(4-chloro-2-(4-(ethylcarbamoyl)phenyl)quinoline-7-carbonyl)piperazine-1-carboxylate], the IC50 stood at 600 nM.

In the case of `CCCOC(=O)N1CCN(C(=O)c2ccc3c(Cl)cc(-c4ccc5ncn(C)c5c4)nc3c2)CC1` [B207, Propyl 4-(4-chloro-2-(1-methyl-1H-benzo[d]imidazol-6-yl)quinoline-7-carbonyl)piperazine-1-carboxylate], the IC50 came out at 60 nM.

For the compound `CCCOC(=O)N1CCN(C(=O)c2ccc3c(Cl)cc(-c4ccc5nc(C)sc5c4)nc3c2)CC1` [B208, Propyl 4-(4-chloro-2-(2-methylbenzo[d]thiazol-6-yl)quinoline-7-carbonyl)piperazine-1-carboxylate], the IC50 was determined as 380 nM.

For the compound `CCCOC(=O)N1CCN(C(=O)c2ccc3c(Cl)cc(-c4cc[nH]c4)nc3c2)CC1` [B209, Propyl 4-(4-chloro-2-(1H-pyrrol-3-yl)quinoline-7-carbonyl)piperazine-1-carboxylate], the IC50 stood at 190 nM.

Take `CCCOC(=O)N1CCN(C(=O)c2ccc3c(Cl)cc(-c4ccc(C(=O)NC5CC5)cc4)nc3c2)CC1` [B210, Propyl 4-(4-chloro-2-(4-(cyclopropylcarbamoyl)phenyl)quinoline-7-carbonyl)piperazine-1-carboxylate]: the IC50 stood at 26 nM.

As for `CCCOC(=O)N1CCN(C(=O)c2ccc3c(Cl)cc(-c4ccc5[nH]cc(C)c5c4)nc3c2)CC1` [B211, Propyl 4-(4-chloro-2-(3-methyl-1H-indol-5-yl)quinoline-7-carbonyl)piperazine-1-carboxylate], the IC50 stood at 1010 nM.

With `CCCOC(=O)N1CCN(C(=O)c2ccc3c(Cl)cc(-c4ccc5nc(C)oc5c4)nc3c2)CC1` [B212, Propyl 4-(4-chloro-2-(2-methylbenzo[d]oxazol-6-yl)quinoline-7-carbonyl)piperazine-1-carboxylate], the IC50 is 240 nM.

Turning to `CCCOC(=O)N1CCN(C(=O)c2ccc3c(Cl)cc(-c4ccc5ocnc5c4)nc3c2)CC1` [B213, Propyl 4-(2-(benzo[d]oxazol-5-yl)-4-chloroquinoline-7-carbonyl)piperazine-1-carboxylate], the IC50 worked out at 330 nM.

`CCCOC(=O)N1CCN(C(=O)c2ccc3c(Cl)cc(-c4cc(C)n(C)c4C)nc3c2)CC1` [B214, Propyl 4-(4-chloro-2-(1,2,5-trimethyl-1H-pyrrol-3-yl)quinoline-7-carbonyl)piperazine-1-carboxylate]: the 50% inhibitory concentration (IC50) worked out at 120 nM.

With `CCCOC(=O)N1CCN(C(=O)c2ccc3c(Cl)cc(-c4cnn(C)c4)nc3c2)C[C@H]1C` [B215, Propyl (R)-4-(4-chloro-2-(1-methyl-1H-pyrazol-4-yl)quinoline-7-carbonyl)-2-methylpiperazine-1-carboxylate], the IC50 was determined as 110 nM.

`CCCOC(=O)N1CCN(C(=O)c2ccc3c(Cl)cc(-c4ccc(C(=O)NC)c(F)c4)nc3c2)C[C@H]1C` [B216, Propyl (R)-4-(4-chloro-2-(3-fluoro-4-(methylcarbamoyl)phenyl)quinoline-7-carbonyl)-2-methylpiperazine-1-carboxylate]: the IC50 is 230 nM.
